This note sets out measurements from patent publication US20250236619A1, “FUSED BICYCLIC COMPOUND CONTAINING PYRROLINONE” (CHIA TAI TIANQING PHARMACEUTICAL GROUP CO., LTD., priority 2022, published 2025).

Where two headings read alike, the source gives them in different places.

The test system of experiment [1] is p-SLP76 phosphorylation of Jurkat cells. The experiment is described as follows: Assay for inhibitory activity against p-SLP76 phosphorylation of Jurkat cells. The experiment is classed as cell-based. The note with it: stimulator CD3CD28, 30 min, read-out: IC50 (nM) for inhibition of p-SLP76 phosphorylation of Jurkat cells. The method, then: 2.1 Assay for Inhibitory Activity Against p-SLP76 Phosphorylation of Jurkat Cells
Jurkat cells in a good growth state were added to a centrifuge tube, centrifuged, and resuspended. The cell density was adjusted to 6.25×10^6 cells/mL, and the cells were seeded in a 384-well small-volume white plate at […]. Different compounds dissolved in DMSO were added to the wells using a nanoliter pipettor to obtain final concentrations of the compounds of 2500 nM to 10.29 nM, and a control was set; the wells were set in duplicate. After 1 h of cell culture, the stimulator CD3CD28 (manufacturer: stemcell, 4 μL) was added and the cells were incubated at 37° C. for 30 min. 3 μL of lysis buffer (manufacturer: BioAuxilium) was added to each well, and the plate was shaken at room temperature for 30 min. After the lysate was well mixed, 5 μL of pre-mixed antibody (manufacturer: BioAuxilium) in assay buffer was added and the plate was incubated overnight at room temperature. The signal values were measured on a PerkinElmer Envision multimode microplate reader (excitation: 320 nm, emission: 615 nm/665 nm), and IC50 was calculated by four-parameter filling.

The target in a further experiment is HPK1 kinase (Homo sapiens (Human), UniProt Q92918). As to the kind of experiment: Assay for in vitro inhibitory activity against HPK1 kinase. Format: biochemical. The note with it: HPK1 1 ng/μL, ATP 1 mM, STK Substrate 1-biotin 500 nM. The procedure: Experimental Example 1: Assay for In Vitro Inhibitory Activity Against HPK1 Kinase A kinase buffer (Enzymatic buffer 5×) was diluted to 1×, and 10 mM MgCl2, 1 mM DTT, and 0.005% Tween 20 were added. A 100 ng/μL HPK1 (Life technology) stock solution was diluted with the kinase buffer to obtain a 1.67×, 1.67 ng/μL working solution (final concentration: 1 ng/μL), and the working solution was seeded in a 384-well plate at 6 μL/well. Different compounds dissolved in DMSO were added to the wells using a nanoliter pipettor to obtain final concentrations of the compounds of 1000 nM to 0.244 nM (4-fold serial dilution, 7 concentrations in total), and blank control wells (without enzyme) and negative control wells (with enzyme, plus vehicle DMSO) were set; the wells were set in duplicate. After the enzyme and the compounds were incubated at room temperature for 1 h, a 5×, 5 mM ATP dilution (final concentration: 1 mM) in the kinase buffer was mixed with a 5×, […] substrate (Cisbio, STK Substrate 1-biotin; final concentration: 500 nM) in equal volume, and the mixture was added to the plate at 4 µL/well. The plate was sealed with a film and then incubated at room temperature for 2 h. An assay antibody solution was prepared by mixing the antibody STK Antibody-cryptate (Cisbio, 5 μL/test) and a 4×, 500 nM Streptavidin-XL665 (Cisbio; final concentration: 125 nM) in equal volume and added to the plate at 10 μL/well. The plate was incubated at room temperature for 1 h. The signal values (excitation: […]) were measured using a PE Envision multimode microplate reader, and IC50 was calculated by four-parameter fitting.

The term IC50 denotes the concentration that inhibits the measured activity by half.

Chain of HPK1 kinase (Q92918 whole entry): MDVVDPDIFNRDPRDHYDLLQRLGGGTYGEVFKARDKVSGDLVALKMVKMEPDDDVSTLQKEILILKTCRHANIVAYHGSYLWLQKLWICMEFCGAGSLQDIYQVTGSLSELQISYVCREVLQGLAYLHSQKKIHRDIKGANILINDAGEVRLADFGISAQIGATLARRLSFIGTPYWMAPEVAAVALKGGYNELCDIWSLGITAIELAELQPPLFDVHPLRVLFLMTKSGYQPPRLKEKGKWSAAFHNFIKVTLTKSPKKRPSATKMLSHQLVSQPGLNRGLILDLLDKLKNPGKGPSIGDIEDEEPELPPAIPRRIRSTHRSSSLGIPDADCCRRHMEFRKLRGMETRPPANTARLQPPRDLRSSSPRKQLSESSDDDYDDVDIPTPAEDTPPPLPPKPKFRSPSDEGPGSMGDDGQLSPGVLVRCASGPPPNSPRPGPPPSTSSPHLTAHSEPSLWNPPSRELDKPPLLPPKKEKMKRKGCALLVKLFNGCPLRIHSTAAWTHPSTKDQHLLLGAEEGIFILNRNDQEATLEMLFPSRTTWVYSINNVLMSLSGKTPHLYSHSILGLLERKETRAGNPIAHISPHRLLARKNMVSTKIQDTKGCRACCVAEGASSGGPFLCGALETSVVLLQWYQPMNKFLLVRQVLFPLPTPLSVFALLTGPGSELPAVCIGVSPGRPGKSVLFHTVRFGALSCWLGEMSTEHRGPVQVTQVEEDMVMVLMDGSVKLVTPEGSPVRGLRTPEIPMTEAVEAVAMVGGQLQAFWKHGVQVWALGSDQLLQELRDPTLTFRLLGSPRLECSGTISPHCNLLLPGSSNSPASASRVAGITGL

On to `CN(C)Cc1nc(Nc2ccc(-c3cnn4ccc5occc5c34)c3c2C(=O)NC3)ccc1C1CCN(C)C(=O)C1` (stereo not shown) [Compound I-60], for which the IC50 in experiment [1] (Homo sapiens, 0.5 h) is less than 50 nM; against HPK1 kinase, 2.8 nM.
Consider `CN(C)Cc1nc(Nc2ccc(-c3cnc4cnc5occc5n34)c3c2C(=O)NC3)ccc1[C@H]1CCN(C)C(=O)C1` [Compound I-69], for which the IC50 in experiment [1] is less than 50 nM; against HPK1 kinase, 3.7 nM.
On the same counts, the results for `CN(C)Cc1nc(Nc2ccc(-c3cnc4ccc5occc5n34)c3c2C(=O)NC3)ccc1[C@H]1CCN(C)C(=O)C1` [Compound I-72] are less than 50 nM and 3.7 nM.
In the case of `CN(C)Cc1nc(Nc2ccc(-c3cnc4ccc5occc5n34)c3c2C(=O)NC3)ccc1[C@@H]1CCN(C)C(=O)C1` [Compound I-73], the IC50 was less than 50 nM in experiment [1] and 2.9 nM against HPK1 kinase.
Consider `CN(C)Cc1nc(Nc2ccc(-c3cnn4c3CC3(CC3)C4)c3c2C(=O)NC3)ccc1N1CCN(C)C(=O)C1` [Compound I-75], for which the IC50 in experiment [1] is 50 to 100 nM; against HPK1 kinase it was 3.4 nM.
On the same counts, the results for `CN(C)Cc1nc(Nc2ccc(-c3cnc4ccc5occc5n34)c3c2C(=O)NC3)ccc1-c1ccn(C)c(=O)c1` [Compound I-77] are less than 50 nM and 2.9 nM.
With `CN(C)Cc1nc(Nc2ccc(-c3cnn4c3CC3(CC3)C4)c3c2C(=O)NC3)ccc1C1CCN(C)CC1` [Compound I-78], the figures for the IC50 (in experiment [1]; against HPK1 kinase) were 50 to 100 nM and 2.3 nM, respectively.
On the same counts, the results for `CN(C)Cc1nc(Nc2ccc(-c3cnn4c3CC3(CC4)CC3)c3c2C(=O)NC3)ccc1[C@@H]1CCN(C)C(=O)C1` [I-71] are less than 50 nM and 3.6 nM.
